Consider one cell line from the supplement of paper PMC10307832.

Assay in all cases: relative viability (nuclei count vs DMSO), 5 days (fraction); higher = more cells survive
Compound in assay [1]: C[C@@]1(C(=O)Nc2ccc(F)nc2)CCCN1c1nc(Nc2cc(C3CC3)n[nH]2)c2cccn2n1 + CC1(C)CCC(c2ccc(Cl)cc2)=C(CN2CCN(c3ccc(C(=O)NS(=O)(=O)c4ccc(N[C@H](CCN5CCOCC5)CSc5ccccc5)c(S(=O)(=O)C(F)(F)F)c4)cc3)CC2)C1 [Navitoclax] (partner 0.5 µM)
Put shortly: (§1)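 Lung cancer cell lines in 1536-well plates were dosed by pin tool the day after seeding, either with one drug alone or with a fixed anchor-drug dose plus five library-drug doses (not always all listed) in √10 steps. After 5 days, cells were fixed and their nuclei stained in one step (final 0.05% Triton X-100, 1% formaldehyde, 1 ug/ml Hoechst), then counted on 4× images. Relative viability is the nuclei count in treated wells divided by that in vehicle wells. Values are medians of duplicate plates.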

Compound in the assay “Motesanib + Lapatinib”: CC1(C)CNc2cc(NC(=O)c3cccnc3NCc3ccncc3)ccc21 [Motesanib] + CS(=O)(=O)CCNCc1ccc(-c2ccc3ncnc(Nc4ccc(OCc5cccc(F)c5)c(Cl)c4)c3c2)o1 [Lapatinib] (partner 2 µM)
In outline:
as §1

Compound in assay [2]: C[C@@]1(C(=O)Nc2ccc(F)nc2)CCCN1c1nc(Nc2cc(C3CC3)n[nH]2)c2cccn2n1 + Nc1nc2[nH]cc(CCc3ccc(C(=O)N[C@@H](CCC(=O)O)C(=O)O)cc3)c2c(=O)[nH]1 [Pemetrexed] (partner 0.2 µM)
In outline:
as §1

Compound in assay [3]: C[C@@]1(C(=O)Nc2ccc(F)nc2)CCCN1c1nc(Nc2cc(C3CC3)n[nH]2)c2cccn2n1 + CS(=O)(=O)N1CCN(Cc2cc3nc(-c4cccc5[nH]ncc45)nc(N4CCOCC4)c3s2)CC1 [Pictilisib] (partner 1 µM)
Put shortly: as §1

For the cell line UMC-11, the relative viability was found to be 0.365 in assay [1] (first compound 0.04 µM); 0.293 in assay [1] (first compound 0.1265 µM); 0.249 in assay [1] (first compound 0.4 µM); 0.269 in assay [1] (first compound 1.265 µM); 0.901 with Motesanib + Lapatinib (first compound 0.01 µM); 1.07 with Motesanib + Lapatinib (first compound 0.03162 µM). Besides, the relative viability came to 0.724 with Motesanib + Lapatinib (first compound 0.1 µM); 1 with Motesanib + Lapatinib (first compound 0.3162 µM); 1.08 in the assay with Motesanib + Lapatinib (first compound 1 µM); 0.773 in assay [2] (first compound 0.04 µM); 0.827 in assay [2] (first compound 0.1265 µM); 0.705 in assay [2] (first compound 0.4 µM). Also, the relative viability is 0.722 in assay [2] (first compound 1.265 µM); 0.776 in assay [3] (first compound 0.04 µM); 0.868 in assay [3] (first compound 0.1265 µM); 0.805 in assay [3] (first compound 0.4 µM); 0.723 in assay [3] (first compound 1.265 µM).
